Experimental data reported in patent US4118482A (priority 1977, dated 1978).
Like-named read-outs stand apart in the source and are kept apart here. Numbered stars: 1 amine (or outer) side, 2 acyl side, 3 side chain; on linkers, the order of the positions; unused ones are H or OH. Bridge positions count the residues as written; N and C are the ends. Square brackets hold non-standard residues; d marks the D form. Peptide text beside a SMILES is read from it. I, II: the chains in the order shown. Actinocin(9to1) = Cc1c2oc3c(C)ccc(C(=O)[*:1])c3nc-2c(C(=O)[*:2])c(N)c1=O; NMeV = CN[C@H](C(=O)O)C(C)C; Sar = CNCC(=O)O

Key:
[1] = system: advanced Ridgeway osteogenic sarcoma; details: cited from earlier work
P388 leukemia = P388 leukemia in mice, treatment QD at days 1-9 (National Cancer Institute screen); format: in vivo; details: QD days 1-9, P388 mice; for SURVIAL TIME MEDIAN: controls 10 days
Description: (§1) The National Cancer Institute conducted a screening test on samples of both Azetomicin I (3' prolyl, 3' azet) and Azetomicin II (3', 3' azet) as well as on Dactinomycin (3', 3' prolyl) that is also known as Actinomycin D or C1. The Azetomicin and Dactinomycin molecules are identical, with the exception of the 3' amino acid position on the peptides, wherein the 3' positions, in the case of Dactinomycin are both prolyl; in the case of the Azetomicin I are prolyl and azetidine-2-carboxyl; and in the cae of Azetomicin II are both azetidine-2-carboxyl.
P 388 LEUKEMIA : QD AT DAYS 1-9 TREATMENT

ADVANCED P388 LEUKEMIA = assay: Advanced P388 leukemia in mice, treatment Q4D x 3 at days 5, 9, 13; format: in vivo; details: 0.15 Mg/Kg/Inj., Q4D x 3 days 5, 9, 13, advanced P388
Description: as §1
ADVANCED P388 LEUKEMIA : Q4D × 3 AT DAYS 5, 9, 13 TREATMENT

[2] = schedule day 12, data of Southern Research Institute

Which results are given for `O=P1(N(CCCl)CCCl)NCCCO1` (stereo not drawn) [CYCLOPHOSPHAMIDE]?
"CURES" (Number/Total) [1, 2]: 3/8; REGRESSION 50+%-PARTIAL (Number/Total) [1, 2]: 8/8; […] (Number/Total) [1, 2]: 8/8

With `COc1cccc2c1C(=O)c1c(O)c3c(c(O)c1C2=O)C[C@@](O)(C(=O)CO)C[C@@H]3O[C@H]1C[C@H](N)[C@H](O)[C@H](C)O1` [ADRIAMYCIN] as the compound, how does the “"CURES" (Number/Total)” value [1, 2] read?
The value was 0/8.

What about the “REGRESSION 50+%-PARTIAL (Number/Total)” value [1, 2] of the same compound?
The value was 7/8.

And the “REGRESSION COMPLETE (Number/Total)” value [1, 2]?
The value was 7/8.

What does the source list for `O=NN(CCCl)C(=O)NCCCl` [BCNU]?
"CURES" (Number/Total) [1, 2]: 0/8; REGRESSION 50+%-PARTIAL (Number/Total) [1, 2]: 0/8; REGRESSION COMPLETE (Number/Total) [1, 2]: 0/8

What does the source list for `N[C@@H](Cc1ccc(N(CCCl)CCCl)cc1)C(=O)O` [L-SARCOLYSIN]?
"CURES" (Number/Total) [1, 2]: 4/8; REGRESSION 50+%-PARTIAL (Number/Total) [1, 2]: 8/8; REGRESSION COMPLETE (Number/Total) [1, 2]: 7/8

With `O=NN(CCCl)C(=O)NC1CCCCC1` [CCNU] as the compound, how does the “"CURES" (Number/Total)” value [1, 2] read?
The value was 0/8.

What about the “REGRESSION 50+%-PARTIAL (Number/Total)” value [1, 2] of the same compound?
Its value is 0/8.

What about the “REGRESSION COMPLETE (Number/Total)” value [1, 2] of the same compound?
The value was 0/8.

Which “"CURES" (Number/Total)” value ([1]; schedule days 12,16,20,24) does the source give for `Nc1ncn([C@@H]2O[C@H](CO)[C@@H](O)[C@H]2O)c(=O)n1` [AZACYTIDINE] here?
The value was 0/7.

What about the “REGRESSION 50+%-PARTIAL (Number/Total)” value ([1]; schedule days 12,16,20,24) of the same compound?
Its value is 0/7.

What about the “REGRESSION COMPLETE (Number/Total)” value ([1]; schedule days 12,16,20,24) of the same compound?
Its value is 0/7.

Which results are given for `Cc1c2oc3c(C)ccc(C(=O)N[C@@H]4C(=O)N[C@H](C(C)C)C(=O)N5CCC[C@H]5C(=O)N(C)CC(=O)N(C)[C@@H](C(C)C)C(=O)O[C@@H]4C)c3nc-2c(C(=O)N[C@@H]2C(=O)N[C@H](C(C)C)C(=O)N3CCC[C@H]3C(=O)N(C)CC(=O)N(C)[C@@H](C(C)C)C(=O)O[C@@H]2C)c(N)c1=O` [DACTINOMYCIN, Dactinomycin] (I: T[dV]P[Sar][NMeV] / II: T[dV]P[Sar][NMeV]; ester I:1-I:C, II:1-II:C; linker I:N-II:N via Actinocin(9to1))?
5 ILS* (increased life span) (P388 leukemia; 0.05 Mg/Kg/Inj.): 180%; 60 DAY "CURES" (P388 leukemia; 0.05 Mg/Kg/Inj.): 0%; SURVIAL TIME MEDIAN (P388 leukemia; 0.05 Mg/Kg/Inj.): 28 days; 5 ILS* (increased life span) (P388 leukemia; 0.1 Mg/Kg/Inj.): 115%; 60 DAY "CURES" (P388 leukemia; 0.1 Mg/Kg/Inj.): 12%; SURVIAL TIME MEDIAN (P388 leukemia; 0.1 Mg/Kg/Inj.): 21.5 days; 5 ILS* (increased life span) (ADVANCED P388 LEUKEMIA): 95%; 60 DAY "CURES" (ADVANCED P388 LEUKEMIA): 0; SURVIAL TIME MEDIAN (ADVANCED P388 LEUKEMIA; controls 10 days): 19.5 days

For `CN(C)/N=N/c1[nH]cnc1C(N)=O` [DTIC], which “"CURES" (Number/Total)” value [1, 2] is on record?
The value was 0/10.

And the “REGRESSION 50+%-PARTIAL (Number/Total)” value [1, 2]?
The value was 0/10.

What about the “REGRESSION COMPLETE (Number/Total)” value [1, 2] of the same compound?
Its value is 0/10.

With `COc1cccc2c1C(=O)c1c(O)c3c(c(O)c1C2=O)C[C@@](O)(C(C)=O)C[C@@H]3O[C@H]1C[C@H](N)[C@H](O)[C@H](C)O1` [DAUNOMYCIN] as the compound, how does the “"CURES" (Number/Total)” value ([1]; schedule days 12-17) read?
The value was 0/12.

What about the “REGRESSION 50+%-PARTIAL (Number/Total)” value ([1]; schedule days 12-17) of the same compound?
Its value is 9/12.

And the “REGRESSION COMPLETE (Number/Total)” value ([1]; schedule days 12-17)?
The value was 3/12.

Which “"CURES" (Number/Total)” value [1, 2] does the source give for MITHRAMYCIN here?
The value was 0/7.

What about the “REGRESSION 50+%-PARTIAL (Number/Total)” value [1, 2] of the same compound?
Its value is 0/7.

What about the “REGRESSION COMPLETE (Number/Total)” value [1, 2] of the same compound?
Its value is 0/7.

Which results are given for `O=C(O)CCCc1ccc(N(CCCl)CCCl)cc1` [CHLORAMBUCIL]?
"CURES" (Number/Total) [1, 2]: 0/10; REGRESSION 50+%-PARTIAL (Number/Total) [1, 2]: 0/10; REGRESSION COMPLETE (Number/Total) [1, 2]: 0/10

What does the source list for `CNNCc1ccc(C(=O)NC(C)C)cc1` [PROCARBAZINE]?
"CURES" (Number/Total) ([1]; schedule days 12-20): 0/10; REGRESSION 50+%-PARTIAL (Number/Total) ([1]; schedule days 12-20): 0/10; REGRESSION COMPLETE (Number/Total) ([1]; schedule days 12-20): 0/10

What does the source list for `CC[C@]1(O)C[C@H]2CN(CCc3c([nH]c4ccccc34)[C@@](C(=O)OC)(c3cc4c(cc3OC)N(C=O)[C@H]3[C@@](O)(C(=O)OC)[C@H](OC(C)=O)[C@]5(CC)C=CCN6CC[C@]43[C@@H]65)C2)C1` [VINCRISTINE]?
"CURES" (Number/Total) ([1]; schedule days 12,16,20): 0/10; REGRESSION 50+%-PARTIAL (Number/Total) ([1]; schedule days 12,16,20): 10/10; REGRESSION COMPLETE (Number/Total) ([1]; schedule days 12,16,20): 8/10

What does the source list for L-ASPARAGINASE?
"CURES" (Number/Total) [1, 2]: 0/10; REGRESSION 50+%-PARTIAL (Number/Total) [1, 2]: 0/10; REGRESSION COMPLETE (Number/Total) [1, 2]: 0/10

Which results are given for `S=P(N1CC1)(N1CC1)N1CC1` [THIO-TEPA]?
"CURES" (Number/Total) [1, 2]: 0/10; REGRESSION 50+%-PARTIAL (Number/Total) [1, 2]: 0/10; REGRESSION COMPLETE (Number/Total) [1, 2]: 0/10

With `C[C@]12C=CC(=O)C=C1CC[C@@H]1[C@@H]2C(=O)C[C@@]2(C)[C@H]1CC[C@]2(O)C(=O)CO` [PREDNISONE] as the compound, how does the “"CURES" (Number/Total)” value ([1]; schedule days 12,16,20) read?
Its value is 0/10.

And the “REGRESSION 50+%-PARTIAL (Number/Total)” value ([1]; schedule days 12,16,20)?
The value was 0/10.

And the “REGRESSION COMPLETE (Number/Total)” value ([1]; schedule days 12,16,20)?
The value was 0/10.

Which results are given for `S=c1nc[nH]c2nc[nH]c12` [MERCAPTOPURINE]?
"CURES" (Number/Total) ([1]; schedule days 12-22): 0/10; REGRESSION 50+%-PARTIAL (Number/Total) ([1]; schedule days 12-22): 9/10; REGRESSION COMPLETE (Number/Total) ([1]; schedule days 12-22): 6/10

For `CN(Cc1cnc2nc(N)nc(N)c2n1)c1ccc(C(=O)N[C@@H](CCC(=O)O)C(=O)O)cc1` [METHOTREXATE], which “"CURES" (Number/Total)” value ([1]; schedule days 12,16,20,24) is on record?
Its value is 0/10.

What about the “REGRESSION 50+%-PARTIAL (Number/Total)” value ([1]; schedule days 12,16,20,24) of the same compound?
The value was 0/10.

What about the “REGRESSION COMPLETE (Number/Total)” value ([1]; schedule days 12,16,20,24) of the same compound?
The value was 0/10.

With `CO[C@@]12[C@H](COC(N)=O)C3=C(C(=O)C(C)=C(N)C3=O)N1C[C@@H]1N[C@@H]12` [MITOMYCIN-C] as the compound, how does the “"CURES" (Number/Total)” value [1, 2] read?
The value was 0/10.

What about the “REGRESSION 50+%-PARTIAL (Number/Total)” value [1, 2] of the same compound?
Its value is 0/10.

And the “REGRESSION COMPLETE (Number/Total)” value [1, 2]?
The value was 0/10.

For `O=c1[nH]cc(F)c(=O)[nH]1` [FLUOROURACIL], which “"CURES" (Number/Total)” value ([1]; schedule days 12,16,20,24) is on record?
The value was 0/10.

And the “REGRESSION 50+%-PARTIAL (Number/Total)” value ([1]; schedule days 12,16,20,24)?
The value was 8/10.

And the “REGRESSION COMPLETE (Number/Total)” value ([1]; schedule days 12,16,20,24)?
The value was 5/10.

For `Nc1ccn([C@@H]2O[C@H](CO)[C@@H](O)[C@@H]2O)c(=O)n1` [ARA-C], which “"CURES" (Number/Total)” value ([1]; schedule days 12,12,20(q3h)) is on record?
Its value is 0/10.

And the “REGRESSION 50+%-PARTIAL (Number/Total)” value ([1]; schedule days 12,12,20(q3h))?
The value was 7/10.

And the “REGRESSION COMPLETE (Number/Total)” value ([1]; schedule days 12,12,20(q3h))?
The value was 3/10.
